“And” between values parts separate entries of the source, which are not always exact repeats. Identical values can stand only once. “Also recorded” adds a separate entry of the source. Like-named read-outs stand apart in the source and are kept apart here.
Experiments:
[1] = tested on: F. tularensis subsp. tularensis strain SchuS4; type: in vivo, mice
[2] = tested on: F. tularensis subsp. tularensis strain SchuS4; design: species or system mice; details: mouse
[3] = tested on: F. tularensis subsp. novicida; type: cell-based, Francisella tularensis subsp. novicida
[4] = tested on: F. tularensis subsp. tularensis; experiment: microbe, parasite or virus in culture; type: cell-based, Francisella tularensis subsp. tularensis
[5] = tested on: F. tularensis subsp. holarctica; experiment: microbe, parasite or virus in culture; type: cell-based, Francisella tularensis subsp. holarctica
F. tularensis, total = type: cell-based, Francisella tularensis

Row | SMILES | bacterial load in spleen ([1]; animals surviving until day 45 (ciprofloxacin: average of two; Lefamulin: one), spleen) | bacterial load in lung ([1]; one remaining Lefamulin-treated animal, day 45, lung) | efficacy in the murine in vivo model (in words) [2] | animals surviving until day 45 ([2]; in vivo) | effect of oral treatment on survival (in words) ([2]; in vivo) | mortality 5 days after the last treatment ([2]; in vivo) [%] | survival by the end of treatment (Day 15) ([2]; in vivo) | activity (in words) [3] | in vitro activity (in words) [4] | MIC ([4]; Francisella tularensis, read-out: concentration at which all subsp. tularensis isolates were inhibited) [µg/mL] | activity / MIC values compared with subsp. tularensis (in words) [5] | antimicrobial activity against F. tularensis (in words) (F. tularensis, total) | in vitro activity (in words) (F. tularensis, total) | activity (in words) ([3]; subsp. novicida) | MIC ([3]; subsp. novicida, N=1, CAMHB + 2% Isovitalex, 35 °C, 48 h) [µg/mL]
1 | C=C[C@]1(C)C[C@@H](OC(=O)CS[C@@H]2CC[C@@H](N)C[C@H]2O)[C@]2(C)[C@H](C)CC[C@]3(CCC(=O)[C@H]32)[C@@H](C)[C@@H]1O [Lefamulin, 14-O-{[(1R, 2R, 4R)-4-amino-2-hydroxy-cyclohexylsulfanyl]-acetyl}-mutilin] | 7.7×10^6 CFU/g | 1.3×10^6 CFU/g | comparable efficacy | one | effective in prolonging the survival | ~100 | 100% and 90% | Potent activity | surprisingly potent activity | ≤ 4 | slightly higher | active in vitro and in vivo; also recorded: potent inhibition | potent in vitro activity | – | –
2 | CC[C@H]1OC(=O)[C@H](C)[C@@H](O[C@H]2C[C@@](C)(OC)[C@@H](O)[C@H](C)O2)[C@H](C)[C@@H](O[C@@H]2O[C@H](C)C[C@H](N(C)C)[C@H]2O)[C@](C)(O)C[C@@H](C)C(=O)[C@H](C)[C@@H](O)[C@]1(C)O [Erythromycin] | – | – | – | – | – | – | – | – | slightly weaker activity | – | – | – | – | inactive | ≥8
